Drawing on the NIST ThermoML archive (doi:10.1016/j.fluid.2009.01.011), this text covers activity coefficient for ten molecules.

This series in a line: activity coefficient (dimensionless); of the first substance listed, at infinite dilution; xn = mol fraction of the nth substance listed. The note with it: Liquid, Chromatography, x1 = 0.

± gives the expanded uncertainty stated by the source.

`CO` [methanol] + CCCC[N+]1(C)CCCC1.O=S(=O)([O-])C(F)(F)F: the activity coefficient is, setting by setting: (298.15 K) 0.717 ± 0.03; (308.15 K) 0.684 ± 0.029; (318.15 K) 0.655 ± 0.029; (328.15 K) 0.628 ± 0.029; (338.15 K) 0.604 ± 0.028; (348.15 K) 0.581 ± 0.028. The activity coefficient (358.15 K) amounted to 0.563 ± 0.028 and the activity coefficient (368.15 K) is 0.543 ± 0.028.

For the molecule `CCCCCCCCC` [nonane] + CCCC[N+]1(C)CCCC1.O=S(=O)([O-])C(F)(F)F, the activity coefficient amounted to 135 ± 6 (298.15 K); 122 ± 5 (308.15 K); 111 ± 5 (318.15 K); 100 ± 5 (328.15 K); 92.4 ± 4.1 (338.15 K); 85.2 ± 3.8 (348.15 K). The activity coefficient is, setting by setting: (358.15 K) 78.9 ± 3.5; (368.15 K) 73.3 ± 3.3.

In the case of `C=CCCCCCC` [oct-1-ene] + CCCC[N+]1(C)CCCC1.O=S(=O)([O-])C(F)(F)F, the activity coefficient reads like this: (298.15 K) 40.9 ± 1.8; (308.15 K) 38.4 ± 1.7; (318.15 K) 36.2 ± 1.6; (328.15 K) 34.3 ± 1.5; (338.15 K) 32.7 ± 1.5; (348.15 K) 31.2 ± 1.4. Moreover, the activity coefficient came out at 29.8 ± 1.3 (358.15 K) and 28.6 ± 1.3 (368.15 K).

Turning to `CCCCCCCC` [octane] + CCCC[N+]1(C)CCCC1.O=S(=O)([O-])C(F)(F)F, the activity coefficient worked out at 95.2 ± 4.3 (298.15 K); 86.9 ± 3.9 (308.15 K); 79.4 ± 3.5 (318.15 K); 73.1 ± 3.3 (328.15 K); 67.2 ± 3 (338.15 K); 62.9 ± 2.8 (348.15 K). For the same molecule, the activity coefficient was found to be 58.4 ± 2.6 (358.15 K) and 54.4 ± 2.4 (368.15 K).

Regarding `CCCCC` [pentane] + CCCC[N+]1(C)CCCC1.O=S(=O)([O-])C(F)(F)F, the activity coefficient runs as follows: (298.15 K) 52.1 ± 2.3; (308.15 K) 46.1 ± 2.1; (318.15 K) 40.3 ± 1.8; (328.15 K) 35.9 ± 1.6; (338.15 K) 32.2 ± 1.4; (348.15 K) 28.9 ± 1.3. The activity coefficient (358.15 K) was 26.1 ± 1.2.

`CCCO` [propan-1-ol] + CCCC[N+]1(C)CCCC1.O=S(=O)([O-])C(F)(F)F: the activity coefficient was 1.26 ± 0.05 (308.15 K); 1.2 ± 0.05 (318.15 K); 1.14 ± 0.04 (328.15 K); 1.08 ± 0.04 (338.15 K); 1.04 ± 0.04 (348.15 K); 0.995 ± 0.035 (358.15 K). For the same molecule, the activity coefficient (368.15 K) is 0.953 ± 0.034.

As to `C1CCOC1` [tetrahydrofuran] + CCCC[N+]1(C)CCCC1.O=S(=O)([O-])C(F)(F)F, the activity coefficient (298.15 K) worked out at 1.38 ± 0.05; the activity coefficient (308.15 K) is 1.39 ± 0.06; the activity coefficient (318.15 K) was 1.41 ± 0.06; the activity coefficient (328.15 K) was 1.42 ± 0.06; the activity coefficient (338.15 K) was 1.43 ± 0.06; the activity coefficient (348.15 K) was 1.44 ± 0.06. The activity coefficient worked out at 1.45 ± 0.06 (358.15 K) and 1.46 ± 0.06 (368.15 K).

In the case of `c1ccsc1` [thiophene] + CCCC[N+]1(C)CCCC1.O=S(=O)([O-])C(F)(F)F, the activity coefficient runs as follows: (298.15 K) 1.02 ± 0.04; (308.15 K) 1.04 ± 0.04; (318.15 K) 1.06 ± 0.04; (328.15 K) 1.08 ± 0.04; (338.15 K) 1.1 ± 0.04; (348.15 K) 1.11 ± 0.04. Moreover, the activity coefficient by setting is: (358.15 K) 1.13 ± 0.04; (368.15 K) 1.14 ± 0.04.

In the case of `Cc1ccccc1` [toluene] + CCCC[N+]1(C)CCCC1.O=S(=O)([O-])C(F)(F)F, the activity coefficient by setting is: (298.15 K) 2.16 ± 0.09; (308.15 K) 2.19 ± 0.1; (318.15 K) 2.22 ± 0.1; (328.15 K) 2.25 ± 0.1; (338.15 K) 2.27 ± 0.1; (348.15 K) 2.3 ± 0.1. In addition, the activity coefficient amounted to 2.32 ± 0.1 (358.15 K) and 2.35 ± 0.1 (368.15 K).

With `O` [water] + CCCC[N+]1(C)CCCC1.O=S(=O)([O-])C(F)(F)F, the activity coefficient is, setting by setting: (318.15 K) 0.865 ± 0.032; (328.15 K) 0.83 ± 0.032; (338.15 K) 0.794 ± 0.031; (348.15 K) 0.765 ± 0.031; (358.15 K) 0.739 ± 0.03; (368.15 K) 0.712 ± 0.03.
